SMILES strings stand for the structures.

In this experiment the target is T1, full-length rat TRPV2 (rTRPV2) (Rattus norvegicus, UniProt Q9WUD2).
T1 sequence (Q9WUD2 1-761): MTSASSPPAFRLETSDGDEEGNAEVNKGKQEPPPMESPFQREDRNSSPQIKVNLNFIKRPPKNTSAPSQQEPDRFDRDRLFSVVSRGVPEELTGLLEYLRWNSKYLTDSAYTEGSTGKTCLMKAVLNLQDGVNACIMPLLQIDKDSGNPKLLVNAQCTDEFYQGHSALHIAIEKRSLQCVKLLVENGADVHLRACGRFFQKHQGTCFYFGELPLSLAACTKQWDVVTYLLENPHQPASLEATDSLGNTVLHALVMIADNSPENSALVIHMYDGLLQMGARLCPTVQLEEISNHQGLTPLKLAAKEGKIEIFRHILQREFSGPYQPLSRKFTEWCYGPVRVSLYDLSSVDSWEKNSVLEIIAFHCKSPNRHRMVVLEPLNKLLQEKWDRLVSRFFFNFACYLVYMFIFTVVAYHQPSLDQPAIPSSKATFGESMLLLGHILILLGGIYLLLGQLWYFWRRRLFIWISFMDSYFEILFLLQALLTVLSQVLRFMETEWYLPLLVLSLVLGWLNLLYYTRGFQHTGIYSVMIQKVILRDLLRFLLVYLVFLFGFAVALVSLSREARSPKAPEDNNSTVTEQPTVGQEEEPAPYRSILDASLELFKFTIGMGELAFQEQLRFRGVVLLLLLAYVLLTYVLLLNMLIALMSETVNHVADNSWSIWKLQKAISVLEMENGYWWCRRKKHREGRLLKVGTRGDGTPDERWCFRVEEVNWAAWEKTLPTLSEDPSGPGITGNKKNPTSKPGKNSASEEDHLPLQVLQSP
Description: cryo-EM structure. The experiment is classed as binding.

On to `COc1cc(/C=C/C(=O)N2CCC=CC2=O)cc(OC)c1OC` [PL, piperlongumine], for which the “cryo-EM structure (3.5 Å, C4 symmetry)” value was “The cryo-EM density map and atomic coordinates of PL-bound rat TRPV2 are deposited”.

The record behind these values is PMC8161495 (ACS Central Science, 2021).
